Data reported in patent publication US11883423B2, “Nucleobase analogue derivatives and their applications” (BOARD OF REGENTS, THE UNIVERSITY OF TEXAS SYSTEM, priority 2014, dated 2024).

Assays:
[1] = test system: Panc-1-Luc human pancreatic cells; assay: Anti-proliferative activity, MTT assay, Panc-1-Luc cells; assay type: cell-based; conditions: 72 h
Experimental: The anti-proliferative activity of Gem-DHA was evaluated in Panc-02, TC-1, Panc-1-Luc, and BxPC-3 cell lines. For Panc-02 and TC-1 cells, cells (1,500/well for Panc-02 and 3,000/well for TC-1) were seeded in 96-well plates and incubated at 37° C. and 5% CO2 overnight. The cells were then treated with various concentrations of Gem-DHA or other compounds for 24 h. For BxPC-3 and Panc-1-Luc cells, 3,000 and 1,000 cells/well were used, respectively, and cells were co-incubated with the Gem-DHA for 72 h. Cell viability was determined using an MTT assay as previously described (Naguib YW et al. Mol Pharm. 2014, 11(4), 1239-1249). Gemcitabine HCl was dissolved in cell culture medium, whereas Gem-DHA and DHA were dissolved in dimethylsulfoxide (DMSO). The values of IC50 were calculated using GraphPad Prism (GraphPad software, Inc., La Jolla, CA).

TC-1 tumors = assay: Antitumor activity against s.c. TC-1 tumors in C57BL/6 mice; assay type: in vivo; conditions: i.p., 50 mg/kg, every 3-4 days, 4 times
Experimental: Therefore, the in vivo antitumor activity of Gem-DHA against TC-1 tumor cells was also evaluated. In the mouse model with TC-1 tumors, 5×10^5 cells were s.c. injected in the right flank of female C57BL/6 mice (Charles River, 6-8 weeks). Eight days later, mice were randomized into 3 groups (n=5-6) and i.p. injected with Gem-DHA (50 mg/kg, −0.087 mmole/kg), gemcitabine HCl (26.1 mg/kg, ˜0.087 mmole/kg), or left untreated as a control. Treatments were repeated every 3-4 days for a total of 4 times. Tumor growth was monitored and tumor volume was calculated as mentioned above. […] Shown in FIG. 14B are the body weights of TC-1 tumor-bearing mice after they were treated with multiple doses of Gem-DHA.

[2] = Biodistribution in TC-1 tumor-bearing mice; assay type: in vivo, C57BL/6 mice; conditions: 90 min after i.v. 75 mg/kg
Experimental: A biodistribution study was carried out in TC-1 tumor-bearing C57BL/6 mice. When tumor diameters reached 7-8 mm (i.e., about 4 weeks after tumor cell injection), mice were injected via the tail vein with a Gem-DHA solution (75 mg/kg). Ninety minutes later, mice were euthanized to collect tumors and major organs (e.g., liver, kidneys, spleen, lung, heart, and pancreas). Tissues were homogenized, and Gem-DHA was extracted using ethyl acetate as mentioned above and analyzed using HPLC.

Panc-1-Luc tumors = assay: Antitumor activity against orthotopic Panc-1-Luc tumors in nude mice, with tumor histology; assay type: in vivo
Description: Nude mice with intrapancreatically injected Panc-1-Luc human pancreatic cancer cells were used as a mouse model of pancreatic cancer. The National Institutes of Health guidelines for animal use and care were followed Animal protocols were approved by the Institutional Animal Care and Use Committee at the University of Texas at Austin. Panc-1-Luc cells (Muniz VP et al. Mol Cancer Res. 2011, 9(7), 867-877) were implanted orthotopically by injecting 1×10^6 cells into (the tail of) the pancreas.
Panc-1-Luc cell suspension was prepared at a concentration of 2×10^7 per ml in a 1:1 (v/v) mixture of DMEM and Matrigel. Tumor cells were then injected into the pancreas of male athymic nude mice (6-8 weeks, Charles River Laboratories, Wilmington, Mass.) following a surgical procedure (Raut CP et al. Cancer Biol Ther. 2004, 3(12), 1217-1224; Bruns CJ et al. Neoplasia. 1999, 1(1), 50-62). Briefly, after mice were anesthetized using isoflurane, the skin and peritoneum were cut open about 1 cm in length using sterile surgical scalpels. The pancreas was pulled out, and 50 μL of the cell suspension were injected slowly until a small bleb was formed. After the needle was withdrawn, a small cotton plug was applied for 10 s. The pancreas was returned back, the peritoneum was sutured with Monocryl™ bioresorbable sutures (Ethicon, Somerville, N.J.), and the skin was then closed using surgical clips. Mice were s.c. injected with buprenorphine (0.1 mg/kg) as a pain killer and were left to heal for one week. Tumor progress was monitored using an IVIS™ Spectrum imaging system (Caliper, Hopkinton, MA). For IVIS imaging, each mouse was i.p. injected with a luciferin solution (15 mg/ml) at a dose of 0.15 mg/g body weight in sterile DPBS, anesthetized with isoflurane, and imaged 10 min after luciferin injection. Four weeks after tumor implantation, mice with tumors were randomized into 3 groups (n=5-7) and intraperitoneally injected (i.p) with Gem-DHA (50 mg/kg, ˜0.087 mmole/kg), gemcitabine HCl (26.1 mg/kg, ˜0.087 mmole/kg), or left untreated. Gem-DHA was in a Tween 80/ethanol/water solution with 5% (w/v) of mannitol, and gemcitabine HCl was in sterile mannitol solution (5%, w/v). Treatments were repeated twice a week for a total 7 doses. Thirty days after the first treatment, mice were sacrificed and tumors were dissected from the pancreas, weighed, and fixed in formalin. The doses were based on the average weight of mice in the same group on the day of injection, and were adjusted only if the weight of an individual mouse was above or below 10% of the average weight.
Tumor tissues were sectioned and stained in the Histology and Tissue Analysis Core at Dell Pediatric Research Institute at the University of Texas at Austin or in the Department of
Molecular Carcinogenesis at the University of Texas M.D. Anderson Cancer Center at Science Park (Smithville, Texas) with hematoxylin & eosin (H&E), antibodies against cleaved lamin-A (apoptosis marker), CD-31 (angiogenesis marker), or Ki-67 (proliferation marker). Slides were then scanned, and images were taken using the ScanScope XT (Aperio Technologies, Vista, CA). […] In addition, several areas of necrosis can also be seen in the centers of the tumors. […] Several pyknotic cells with condensed chromatin can also be seen in tumors in mice that were treated with Gem-DHA.

[3] = Octanol-water (PBS 7.4) partition coefficient; assay type: physicochemical; conditions: in octanol under the test conditions
Experimental: The octanol-water partition coefficient of Gem-DHA was determined using a previously reported method with minor modifications (Hsu CH et al. Pharm Res. 2003, 20(6), 918-925). Briefly, octanol and PBS (7.4, 0.01 M) were mutually saturated for 24 h. Gem-DHA was dissolved in octanol (0.4 mg/ml, PBS-saturated) and 10 μl of the solution were withdrawn and diluted with methanol to measure Gem-DHA concentration using HPLC (C1) PBS was added to octanol at a volume ratio (VPBS/Voct) of 20:1 into a sealed vial under nitrogen, and the mixture was agitated vigorously at room temperature using a horizontal orbital shaker at 250 rpm (Max Q 2000, Thermo Scientific, Waltham, Mass.) while protected from light. After 5 h, the mixture was centrifuged (14,000 rpm, 15 min) and the concentration of Gem-DHA in the octanol layer was determined using HPLC (C2). Partition coefficient (Koctiwater) was calculated using the following equation: […]
The partition coefficient (octanol/PBS 7.4) of Gem-DHA was also measured using an indirect method by determining the concentration of the drug in octanol, before and after partitioning.

Question: Which results are given for CC/C=C\C/C=C\C/C=C\C/C=C\C/C=C\C/C=C\CCC(=O)Nc1ccn(C2OC(CO)C(O)C2(F)F)c(=O)n1 (stereo not drawn) [Gem-DHA, 4-(N)-Docosahexaenoyl Difluorodeoxycytidine]?
Answer: Inhibition of tumor cell growth (comparison) [1]: more effective than gemcitabine alone or the physical mixture of gemcitabine and DHA; Control of growth of s.c. TC-1 tumors (TC-1 tumors): more effective than a molar equivalent dose of gemcitabine HCl; Distribution among organs [2]: high percent of the injected Gem-DHA was in mouse pancreas; H&E histology of tumor tissue (Panc-1-Luc tumors; compared with tumors of untreated mice): less densely packed cancer cells; Inhibition of growth of Panc-1-Luc tumors (Panc-1-Luc tumors; i.p., ~0.087 mmole/kg (Gem-DHA 50 mg/kg, gemcitabine HCl 26.1 mg/kg), twice a week, 7 doses): more effective than the molar equivalent dose of gemcitabine HCl; Percent of Ki-67 positive cells in tumors (Panc-1-Luc tumors; versus mice treated with gemcitabine HCl): significantly lower percent of Ki-67 positive cells; Cleaved lamin-A positive staining in tumors (Panc-1-Luc tumors; versus untreated mice): significantly higher percent of positive staining; Micro-vessel density (MVD) in tumors, anti-CD-31 staining (Panc-1-Luc tumors; versus untreated mice): significantly lower than in mice that were not treated; Time stable in octanol [3]: at least 18 h
